The nature of series [1]: cutaneous [^3H]-4-hydroxy tamoxifen delivery in breast cancer patients: radioactivity in breast tissue, blood, urine. Conditions: for share of radioactivity in blood: 24 hours after cutaneous 4-hydroxy tamoxifen.
Procedure: (§1) The patients received [^3H]-labeled drug applied directly on the affected breasts at specified intervals ranging from 12 hours to 7 days before surgery to excise diseased tissue. Breast tissue from three regions: the tumor, tissue immediately surrounding the tumor, and normal tissue, was excised and immediately frozen in liquid nitrogen. Additionally, plasma and urine samples were obtained at scheduled intervals and frozen until analysis.
Series [2] can be described thus: pharmacokinetics of topically applied 4-hydroxy tamoxifen gel in healthy premenopausal women. Type of series: in vivo, human. The settings on record: last administration, day 25 of second cycle; for t1/2: range. How it is done: Each participant applied the gel daily for the duration of two menstrual cycles.
At the end of a menstrual cycle, each patient received a single dose, after which serial blood samples were collected at 0, 0.5, 1, 1.5, 2, 3, 4, 6, 12, 18, 24, 36, 48, and 72 hours.
On the first day of the following menstruation, treatment, which consisted of daily application of the gel over two menstrual cycles, began. Blood samples were collected 24 hours following the morning application of gel on days 7, 20 and 25 of the first and second cycles. On the last day of administration, day 25 of the second menstrual cycle, serial blood samples were collected prior to application and at 0.5, 1, 1.5, 2, 3, 4, 6, 12, 18, 24, 36, 48, and 72 hours after application of the gel.

The conditions of series [3]: human, in vivo; cited from earlier work.
The conditions of series [4]: topical application.
The conditions of series [5]: cited from earlier work.
Another series deals with T1, estrone sulphatase (Homo sapiens, UniProt P08842).
T1 construct: estrone sulphatase activity in mammary cancer cell lines; endogenous in cells
T1 sequence (P08842 22-583): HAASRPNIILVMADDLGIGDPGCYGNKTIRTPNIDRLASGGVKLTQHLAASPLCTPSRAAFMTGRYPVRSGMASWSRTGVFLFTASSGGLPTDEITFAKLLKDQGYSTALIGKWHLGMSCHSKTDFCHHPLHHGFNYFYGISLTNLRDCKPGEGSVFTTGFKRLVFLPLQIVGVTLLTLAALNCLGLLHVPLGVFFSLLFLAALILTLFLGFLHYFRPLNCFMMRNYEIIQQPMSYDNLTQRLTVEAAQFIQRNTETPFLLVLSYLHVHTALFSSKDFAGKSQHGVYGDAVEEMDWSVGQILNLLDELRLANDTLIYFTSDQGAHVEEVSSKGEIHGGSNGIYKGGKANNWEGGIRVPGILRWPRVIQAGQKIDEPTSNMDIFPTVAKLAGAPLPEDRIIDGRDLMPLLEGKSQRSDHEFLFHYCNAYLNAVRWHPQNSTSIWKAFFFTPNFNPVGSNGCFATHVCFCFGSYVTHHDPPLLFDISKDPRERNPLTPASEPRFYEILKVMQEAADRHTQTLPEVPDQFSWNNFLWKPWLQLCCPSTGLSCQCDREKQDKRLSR
Conditions: mammary cancer cell lines; cited from earlier work.

The conditions of series [6]: human, in vivo.
Procedure: as §1
Series [7] deals with p53(−) normal human mammary epithelial cells. Conditions: cited from earlier work.
For series [8] the following is noted: Group 2 (0.5 mg/day gel) on the seventh day; Group 1 (oral tamoxifen 20 mg/day) on the fifth day; cited from earlier work.
A further series concerns keloid fibroblast. Conditions: in vitro, cited from earlier work.
The next series deals with TGF-β1. Conditions: cited from earlier work.
The mark [9] stands for this setting: 12 hr after cutaneous Z-[^3H]-4-hydroxy tamoxifen to the affected breast.
[10] abbreviates: 24 hr after cutaneous Z-[^3H]-4-hydroxy tamoxifen to the affected breast.
Where [11] appears, read: 36 hr after cutaneous Z-[^3H]-4-hydroxy tamoxifen to the affected breast.
Setting [12] is: Day 4 after cutaneous Z-[^3H]-4-hydroxy tamoxifen to the affected breast.
The mark [13] stands for this setting: Day 7 after cutaneous Z-[^3H]-4-hydroxy tamoxifen to the affected breast.

Where two headings read alike, the source gives them in different places.

As a reminder, the Cmax is the peak of the concentration-time curve.

As for `CC/C(=C(/c1ccc(O)cc1)c1ccc(OCCN(C)C)cc1)c1ccccc1` (single isomer, unassigned) [E isomer], the “percentage of isomer in breast tissue radioactivity” value in series [1] (day 7 after cutaneous Z-[^3H]-4-hydroxy tamoxifen) is listed as 33%.

On to `CCC(=C(c1ccc(O)cc1)c1ccc(OCCN(C)C)cc1)c1ccccc1` [4-hydroxy tamoxifen, 1-[4-(2-N-dimethylaminoethoxy)phenyl]-1-(4-hydroxyphenyl)-2-phenylbut-1-ene], for which, in series [2] (0.5 mg/day, 20 mg/100 g gel), the AUC0-24 was determined as 0.2563 ± 0.2053 ng·h/mL, the “Cav = AUC0-24/24” value was 0.0107 ± 0.0085 ng/mL, the Cmax came to 0.017 ± 0.0085 ng/mL and the tmax is 40 ± 81 h. In series [2] (1 mg/day, 20 mg/100 g gel), the AUC0-24 came to 0.3009 ± 0.1908 ng·h/mL, the “Cav = AUC0-24/24” value is 0.0125 ± 0.0079 ng/mL, the Cmax is 0.021 ± 0.014 ng/mL and the tmax stood at 24 ± 18 h. For the same compound, in [2] (1 mg/day, 57 mg/100 g gel), the AUC0-24 turned out to be 0.619 ± 0.466 ng·h/mL, the “Cav = AUC0-24/24” value was 0.0258 ± 0.0194 ng/mL, the Cmax came to 0.0351 ± 0.0224 ng/mL and the tmax was 12.8 ± 14.9 h. Besides, the t1/2 entry in series [2] (1 mg/day, 57 mg/100 g gel) was “(58-118) hr”. Moreover, in [2] (2 mg/day, 57 mg/100 g gel), the AUC0-24 came to 0.998 ± 0.653 ng·h/mL, the “Cav = AUC0-24/24” value stood at 0.0416 ± 0.0272 ng/mL, the Cmax is 0.0516 ± 0.0317 ng/mL and the tmax stood at 11.8 ± 12.3 h. The t1/2 result in [2] (2 mg/day, 57 mg/100 g gel) is “(49-101) hr”. In addition, in series [3], the “radioactivity in excised tissue and normal breast tissue surrounding the tumor” value is listed as “contained radioactivity”. Also, in [4], the systemic effects result is “no detectable laboratory or clinical evidence of systemic effects”. Besides, the rat liver carcinogenicity result in series [5] (in vivo) was “not”. In addition, the “inhibitory effect on estrone sulphatase activity” value on estrone sulphatase is listed as “significant inhibitory effect”. Further, in [6], the “metabolism in intracellular sites of breast tissue” value is reported as “remained unmetabolized except for limited isomerization from the Z to the E form”; the “metabolites in the urine” value is “progressive increase of metabolites, mostly N-desmethyl-4-hydroxy tamoxifen and bisphenol”; the “radioactivity administered that showed in the blood” value is on record as 0.5%; the “share of radioactivity in blood” value is on record as 68%. In addition, in series [6], the “subcellular distribution in breast tissue” value was “concentrated predominantly in the cytosolic and nuclear fractions of breast tissue”; the “time of plateau of radioactivity in blood” value lay in the range of 4 to 6 days.

For `CC(C)(c1ccc(O)cc1)c1ccc(O)cc1` [Bisphenol], the “% Metabolites in Breast Tissue” value in [1] (setting [9]) came out at 1%; in [1] (setting [10]) it was 2%; in [1] (setting [11]), 3%; in series [1] (setting [12]), 8%; in series [1] (setting [13]), 8%. Further, the “share of radioactivity in blood” value in series [1] is given as 11%.

As to `CC/C(=C(\c1ccc(O)cc1)c1ccc(OCCNC)cc1)c1ccccc1` [N-Desmethyl-4-Hydroxy Tamoxifen], the “% Metabolites in Breast Tissue” value in [1] (setting [9]) turned out to be 2%; in series [1] (setting [10]), 4%; in series [1] (setting [11]), 14%; in series [1] (setting [12]) it was 20%; in [1] (setting [13]), 16%. For the same compound, the “share of radioactivity in blood” value in series [1] stood at 18%.

In the case of `CC/C(=C(\c1ccc(O)cc1)c1ccc(OCCN(C)C)cc1)c1ccccc1` [Z-4-hydroxy tamoxifen], in series [6], the “percentage of isomer in breast tissue radioactivity” value is reported as 32%.

In the case of `CC/C(=C(\c1ccccc1)c1ccc(OCCN(C)C)cc1)c1ccccc1` [tamoxifen], the initiation of apoptosis result in [7] is listed as “initiates apoptosis”. The “side effects reported by one person of the group” value in series [8] was “hot flashes and mild vaginitis”. Besides, the rat liver carcinogenicity entry in [5] was “potent rat liver carcinogen”. The collagen production entry with keloid fibroblast (keloid fibroblasts) is given as “decreases collagen production”. Also, in the series with keloid fibroblast, the keloid fibroblast proliferation result was “inhibits keloid fibroblast proliferation”. Moreover, the “time of plateau of radioactivity in blood” value in series [1] (cutaneous [^3H]-labeled drug) stood at 2 days. In addition, the “retention in the breast” value in series [1] (cutaneous [^3H]-labeled drug, 80 μCi) is “shorter and far weaker”. Besides, the “inhibitory effect on estrone sulphatase activity” value at estrone sulphatase was “little or no effect”. In the series on TGF-β1, the TGF-β1 expression result is given as “downregulating TGF-β1 expression”.

The values above are taken from patent US7767717B2 (priority 2003, dated 2010).
